Assay results published in article PMC12332266 (Frontiers in Pharmacology, 2025).
Values joined by “and” are separate entries in the source; they are usually repeats but may differ in a detail not shown here. Equal values may be shown once. Read-outs that look alike come from different tables or passages of the source.

What was measured:
[1] = system: hiPSC-CM (iCell Cardiomyocytes^2); experiment: Intracellular miRNA expression by RT-qPCR in hiPSC-CM pellets after 72-hour treatment; conditions: for hsa-miR-7-5p fold change, intracellular / hsa-miR-29a-5p fold change, intracellular / hsa-miR-126-3p fold change, intracellular / hsa-miR-133b fold change, intracellular / hsa-miR-146b-5p fold change, intracellular / hsa-miR-182-5p fold change, intracellular / hsa-miR-185-3p fold change, intracellular / hsa-miR-187-3p fold change, intracellular / hsa-miR-208b-3p fold change, intracellular / hsa-miR-365a-5p fold change, intracellular / hsa-miR-96-5p fold change, intracellular: 72 h
Experimental: (§1) Culture media change was performed every 2 days.
Total RNA was extracted from hiPSC-CM using the miRNeasy 96 Kit (Qiagen, Hilden, Germany) following the manufacturer’s recommendations. After the extraction, RNA purity was assessed by NanoDrop™ 8000 Spectrophotometer (Thermo Fisher Scientific Inc.). 5–10 ng/μL of RNA per sample were reverse transcribed and pre-amplified by using the TaqMan™ Advanced miRNA cDNA Synthesis Kit (Thermo Fisher Scientific Inc.). The synthesized cDNA was used for RT-qPCR with selected TaqMan™ assays (Thermo Fischer Scientific Inc.). RT-qPCR was carried out following the Applied Biosciences TaqMan miRNA expression assay protocol on a ViiA7 instrument (Thermo Fisher Scientific, Inc.). […] Therefore, to maximize the number of drugs and concentrations, explored in the same study, we pooled the triplicates for intracellular profiling of miRNAs. Therefore, no statistical analysis was performed on the data of miRNA profiling in the pellets of hiPSC-CM.
Following RTCA CardioECR assessment, hiPSC-CM cell pellets were collected, and total RNA was extracted and purified to investigate miRNAs upregulation by RT-qPCR. […] For the initial assessment of intracellular miRNAs in 12 different treatments, encompassing various drug classes, we used a panel of 17 miRNAs, which we selected from the publicly available data focusing mainly on in vitro models and structural cardiotoxicants (Supplementary Table S2).

[2] = ref extensive literature search, cited from earlier work
[3] = system: hiPSC-CM (iCell Cardiomyocytes^2); experiment: RTCA CardioECR assessment (impedance and electrophysiology parameters)
Experimental: as §1
After seeding on fibronectin-coated xCELLigence ePlates (Agilent Technologies, Inc. Santa Clara, CA, USA), iCell^2 CM were monitored continuously through impedance electrodes. The following impedance parameters were measured: Cell Index (CI, measure of cell “health” and monolayer integrity), beating rate (BR) and amplitude (CI Amplitude, magnitude of contraction). Electrophysiology-like parameters (Field Potential Duration (FPD), considered as a surrogate for QT in in vivo studies, and Spike Amplitude (SA), depolarization induced by Na^+ channel opening) were measured starting from day 4–6, following the monolayer formation. […] All RTCA CardioECR data were double normalized (DMSO control and the baseline) with no further statistical group comparison for the normalized parameters. The variability of the data within the treatment groups was assessed by standard deviation.

## Cc1cn(-c2cc(NC(=O)c3ccc(C)c(Nc4nccc(-c5cccnc5)n4)c3)cc(C(F)(F)F)c2)cn1 [Nilotinib]
[1]
  intracellular miRNA upregulation in hiPSC-CM, in words: smallest fold change
  miRNAs hiPSC-CM pellet, MEC overall: 0.3 µM
  miRNAs upregulated at the MEC overall (hiPSC-CM pellet): miR-126-3p
[1]; 0.01 µM
  hsa-miR-7-5p fold change, intracellular: 1.2
  hsa-miR-29a-5p fold change, intracellular: 0.5
  hsa-miR-126-3p fold change, intracellular: 1.4
  hsa-miR-133b fold change, intracellular: 0.3
  hsa-miR-146b-5p fold change, intracellular: 0.2
  hsa-miR-182-5p fold change, intracellular: 0.3
  hsa-miR-185-3p fold change, intracellular: 0.7
  hsa-miR-187-3p fold change, intracellular: 0.7
  hsa-miR-208b-3p fold change, intracellular: 1.0
  hsa-miR-365a-5p fold change, intracellular: 0.8
[1]; 0.1 µM
  hsa-miR-7-5p fold change, intracellular: 1.2
  hsa-miR-29a-5p fold change, intracellular: 0.2
  hsa-miR-96-5p fold change, intracellular: 0.3
  hsa-miR-126-3p fold change, intracellular: 3.0
  hsa-miR-133b fold change, intracellular: 0.2
  hsa-miR-146b-5p fold change, intracellular: 0.2
  hsa-miR-182-5p fold change, intracellular: 0.2
  hsa-miR-185-3p fold change, intracellular: 1.5
  hsa-miR-187-3p fold change, intracellular: 0.7
  hsa-miR-208b-3p fold change, intracellular: 1.1
  hsa-miR-365a-5p fold change, intracellular: 0.2
[1]; 0.3 µM
  hsa-miR-7-5p fold change, intracellular: 0.5
  hsa-miR-29a-5p fold change, intracellular: 0.2
  hsa-miR-126-3p fold change, intracellular: 4.3
  hsa-miR-133b fold change, intracellular: 0.4
  hsa-miR-146b-5p fold change, intracellular: 0.2
  hsa-miR-182-5p fold change, intracellular: 0.7
  hsa-miR-185-3p fold change, intracellular: 0.7
  hsa-miR-187-3p fold change, intracellular: 0.5
  hsa-miR-208b-3p fold change, intracellular: 0.5
  hsa-miR-365a-5p fold change, intracellular: 0.7
[1]; 1 µM
  hsa-miR-7-5p fold change, intracellular: 0.9
  hsa-miR-29a-5p fold change, intracellular: 0.4
  hsa-miR-96-5p fold change, intracellular: 1.4
  hsa-miR-126-3p fold change, intracellular: 5.5
  hsa-miR-133b fold change, intracellular: 0.3
  hsa-miR-146b-5p fold change, intracellular: 0.3
  hsa-miR-182-5p fold change, intracellular: 0.4
  hsa-miR-185-3p fold change, intracellular: 0.3
  hsa-miR-187-3p fold change, intracellular: 0.7
  hsa-miR-208b-3p fold change, intracellular: 1.2
[2]; Supplementary Table 1
  Cmax total: 0.84 to 4.27 µM
[2]; Table 1
  Cmax total: 0.84 to 4.27 µM
[3]; hiPSC-CM, 72-hour treatment, lowest concentration causing at least 20% change from baseline
  Cell index (CI) MEC: ND (ND – not detected, magnitude of change was lower than 20%)
[3]; hiPSC-CM, change ≥20%, Table 2
  RTCA, MEC (CI): ND (ND – not detected, magnitude of change was lower than 20% for CI/BR)
[3]; human, 72 h
  Contractility Amplitude MEC: 0.1 µM
  Spike Amplitude (SA) MEC: 0.01 µM

## Cc1ccc(NC(=O)c2ccc(CN3CCN(C)CC3)cc2)cc1Nc1nccc(-c2cccnc2)n1 [Imatinib]
[1]
  miRNAs hiPSC-CM pellet, MEC overall: 0.3 µM
[3]; human, 72 h
  Spike Amplitude (SA) MEC: 0.3 µM

## Endothelin-1
[1]
  hsa-miR-133b fold change: 2.7 and 3.5 and 3.1
  hsa-miR-208b-3p fold change: 1.6 and 1.5 and 1.1 and 1.0
[3]; hiPSC-CM, 72-hour treatment
  Contractility Amplitude magnitude of effect at MEC: -20%
  Field Potential Duration magnitude of effect at MEC: +20%
  Spike Amplitude (SA) magnitude of effect at MEC: -52%
